From patent US12528815B2, “5-amino-8-(4-pyridyl)-[1,2,4]triazolo[4,3-c]pyrimidin-3-one compounds for use against cancer” (Nxera Pharma UK Limited, priority 2020, dated 2026)

Experiments:
[1] = target: T1, human adenosine A1 receptor (Homo sapiens, UniProt P30542); assay: Inhibition binding assay, human adenosine A1 receptor membranes, [3H]DPCPX; details: 1 nM [3H]DPCPX, 25° C., 1 h; IC50 converted to Ki with Cheng-Prusoff; read-out: A1 pKi (converted)
T1 construct: expressed in transfected cells; host or cells: HEK293 cells infected with BacMam (the same paragraph also labels the preparation CHO-hA1)
T1 sequence (P30542 1-326): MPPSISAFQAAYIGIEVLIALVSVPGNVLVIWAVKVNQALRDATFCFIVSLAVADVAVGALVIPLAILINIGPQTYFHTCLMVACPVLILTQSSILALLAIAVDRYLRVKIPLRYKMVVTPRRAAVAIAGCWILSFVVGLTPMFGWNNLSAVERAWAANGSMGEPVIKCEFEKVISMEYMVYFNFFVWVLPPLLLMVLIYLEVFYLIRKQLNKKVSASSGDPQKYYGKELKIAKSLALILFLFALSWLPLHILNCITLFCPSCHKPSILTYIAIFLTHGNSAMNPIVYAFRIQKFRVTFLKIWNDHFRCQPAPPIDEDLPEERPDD
In short: (§1)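 Membranes from BacMam-infected HEK293 cells (0.2 μg A2A, 1.4 μg A1) incubated 1 h at 25° C with test compound and 1 nM [3H]ZM241385 (A2A; 50 mM Tris-HCl pH 7.4) or [3H]DPCPX (A1; plus 100 mM NaCl, 10 mM MgCl2). Nonspecific: 1 μM CGS15943 or DPCPX. Filtration, scintillation; IC50 converted to Ki via Cheng-Prusoff.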

human CB1 receptor = target: T2, human CB1 receptor (Homo sapiens, UniProt P21554); assay: CB1 receptor antagonism, agonist-induced cAMP modulation (HTRF) in transfected CHO cells; type: cell-based; details: read-out: Antag IC50
T2 construct: expressed in transfected cells; host or cells: CHO cells
Description: Receptor antagonism: Evaluation of the antagonist activity of compounds at the human CB1 receptor expressed in transfected CHO cells, determined by measuring their effects on agonist-induced cAMP modulation using the HTRF detection method.
Thereafter, the reference agonist CP 55940 and the adenylyl cyclase activator NKH 477 are added at respective final concentrations of 3 nM and 3 μM.
For basal control measurements, CP 55940 is omitted from the wells containing 3 μM AM 281.
Following 20 min incubation at 37° C., the cells are lysed and the fluorescence acceptor (D2-labeled cAMP) and fluorescence donor (anti-cAMP antibody labeled with europium cryptate) are added.
After 60 min at room temperature, the fluorescence transfer is measured at λex=337 nm and λem=620 and 665 nm using a microplate reader (Rubystar, BMG). The cAMP concentration is determined by dividing the signal measured at 665 nm by that measured at 620 nm (ratio).
The standard reference antagonist is AM 281, which is tested in each experiment at several concentrations to generate a concentration-response curve from which its IC50 value is calculated.

[2] = target: T3, human adenosine A2A receptor (Homo sapiens, UniProt P29274); assay: Inhibition binding assay, human adenosine A2A receptor membranes, [3H]ZM241385; details: 1 nM [3H]ZM241385, HEK293-hA2A membranes, 25° C., 1 h; IC50 converted to Ki with Cheng-Prusoff; read-out: A2A pKi (converted)
T3 construct: expressed in transfected cells; host or cells: HEK293 cells infected with BacMam
In short: as §1

[3] = target: T4, human CB-1 cannabinoid receptor (Homo sapiens, UniProt P21554); assay: CB1 receptor radioligand binding assay, [3H]CP 55940, transfected CHO cell membranes; details: 0.5 nM [3H]CP 55940, CHO membrane homogenates, 120 min at 37° C.
T4 construct: expressed in transfected cells; host or cells: CHO cells
Description: Nonspecific binding is determined in the presence of 10 μM WIN 55212-2.
Following incubation, the samples are filtered rapidly under vacuum through glass fiber filters (GF/B, Packard) presoaked with 0.3% PEI and rinsed several times with an ice-cold buffer containing 50 mM Tris-HCl (pH 7.4) and 0.5% BSA using a 96-sample cell harvester (Unifilter, Packard). The filters are dried then counted for radioactivity in a scintillation counter (Topcount, Packard) using a scintillation cocktail (Microscint 0, Packard).
The standard reference compound is CP 55940 which is tested in each experiment at several concentrations to obtain a competition curve from which its IC50 is calculated.

T2 sequence (P21554 whole entry): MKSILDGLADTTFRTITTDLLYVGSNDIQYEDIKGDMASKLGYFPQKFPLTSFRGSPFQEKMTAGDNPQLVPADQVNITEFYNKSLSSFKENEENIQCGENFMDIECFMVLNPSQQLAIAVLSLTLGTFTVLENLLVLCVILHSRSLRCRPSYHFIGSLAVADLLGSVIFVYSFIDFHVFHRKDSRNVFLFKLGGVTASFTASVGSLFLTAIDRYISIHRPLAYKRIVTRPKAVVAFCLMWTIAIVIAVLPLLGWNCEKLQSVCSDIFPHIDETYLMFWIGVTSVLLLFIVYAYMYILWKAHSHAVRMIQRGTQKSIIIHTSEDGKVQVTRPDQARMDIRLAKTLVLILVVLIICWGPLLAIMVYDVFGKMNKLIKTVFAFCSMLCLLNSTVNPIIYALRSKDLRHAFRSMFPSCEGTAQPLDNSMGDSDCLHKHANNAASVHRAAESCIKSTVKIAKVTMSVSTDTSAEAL
T3 sequence (P29274 whole entry): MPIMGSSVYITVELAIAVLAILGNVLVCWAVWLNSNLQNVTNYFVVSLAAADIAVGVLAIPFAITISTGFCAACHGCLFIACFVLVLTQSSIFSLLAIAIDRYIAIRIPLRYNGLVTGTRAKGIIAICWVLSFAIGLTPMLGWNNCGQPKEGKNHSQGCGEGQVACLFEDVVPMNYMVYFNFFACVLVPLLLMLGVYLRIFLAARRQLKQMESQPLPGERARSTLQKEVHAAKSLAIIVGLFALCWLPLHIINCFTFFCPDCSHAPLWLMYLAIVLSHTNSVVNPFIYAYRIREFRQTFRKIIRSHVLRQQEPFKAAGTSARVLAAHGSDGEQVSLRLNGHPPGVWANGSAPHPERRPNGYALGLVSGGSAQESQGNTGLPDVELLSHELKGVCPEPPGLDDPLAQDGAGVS
T4 sequence (P21554 whole entry): as the sequence (P21554 whole entry) above

SMILES | Ki [1] | IC50 (human CB1 receptor) | Ki [2] | Ki [3]
CCOC(=O)N(C)CCn1nc2c(-c3cc(C)nc(C)c3)c(-c3ccccc3)nc(N)n2c1=O [Example 2-13, ethyl N-[2-[5-amino-8-(2,6-dimethyl-4-pyridyl)-3-oxo-7-phenyl-[1,2,4]triazolo[4,3-c]pyrimidin-2-yl]ethyl]-N-methyl-carbamate] | 501 nM | > 100000 nM | 15.8 nM | –
Cc1cc(-c2c(-c3ccccc3)nc(N)n3c(=O)n(C[C@H]4CNCCO4)nc23)cc(C)n1 [Example 2-66, (R)-5-amino-8-(2,6-dimethylpyridin-4-yl)-2-(morpholin-2-ylmethyl)-7-phenyl-[1,2,4]triazolo[4,3-c]pyrimidin-3(2H)-one] | 1000 nM | > 100000 nM | 6.31 nM | –
Cc1cc(-c2c(-c3ccccc3)nc(N)n3c(=O)n(CC(=O)N(C)C)nc23)cc(C)n1 [Example 2-25, 2-[5-amino-8-(2,6-dimethyl-4-pyridyl)-3-oxo-7-phenyl-[1,2,4]triazolo[4,3-c]pyrimidin-2-yl]-N,N-dimethyl-acetamide] | – | > 100000 nM | 10 nM | –
COc1nc(Cn2nc3c(-c4cc(C)nc(C)c4)c(-c4ccccc4)nc(N)n3c2=O)ccc1F [Example 1-7, 5-amino-8-(2,6-dimethyl-4-pyridyl)-2-[(5-fluoro-6-methoxy-2-pyridyl)methyl]-7-phenyl-[1,2,4]triazolo[4,3-c]pyrimidin-3-one] | 398 nM | 3200 nM | 3.98 nM | –
Cc1cc(-c2c(-c3ccccc3)nc(N)n3c(=O)n(C[C@@H]4COCCN4C)nc23)cc(C)n1 [Example 2-80, 5-amino-8-(2,6-dimethyl-4-pyridyl)-2-[[(3R)-4-methylmorpholin-3-yl]methyl]-7-phenyl-[1,2,4]triazolo[4,3-c]pyrimidin-3-one] | 200 nM | > 100000 nM | 7.94 nM | –
Cc1cc(-c2c(-c3ccccc3)nc(N)n3c(=O)n(Cc4ccc(O)nn4)nc23)cc(C)n1 [Example 1-37, 5-amino-8-(2,6-dimethyl-4-pyridyl)-2-[(6-hydroxypyridazin-3-yl)methyl]-7-phenyl-[1,2,4]triazolo[4,3-c]pyrimidin-3-one] | > 3160 nM | – | 63.1 nM | –
Cc1cc(-c2c(-c3ccccc3)nc(N)n3c(=O)n(C[C@H]4COCCN4C)nc23)cc(C)n1 [Example 2-77, 5-amino-8-(2,6-dimethyl-4-pyridyl)-2-[[(3S)-4-methylmorpholin-3-yl]methyl]-7-phenyl-[1,2,4]triazolo[4,3-c]pyrimidin-3-one] | 398 nM | – | 3.16 nM | –
Cc1cc(-c2c(-c3ccccc3)nc(N)n3c(=O)n(CCOS(C)(=O)=O)nc23)cc(C)n1 [Example 2-9, 2-[5-amino-8-(2,6-dimethyl-4-pyridyl)-3-oxo-7-phenyl-[1,2,4]triazolo[4,3-c]pyrimidin-2-yl]ethyl methanesulfonate] | 631 nM | – | 20 nM | –

Other lines, results leading:

Ki [1] | IC50 (human CB1 receptor) | Ki [2] | Ki [3] | SMILES
– | > 100000 nM | 20 nM | – | Cc1cc(-c2c(-c3nc(C)cs3)nc(N)n3c(=O)n(CCC(F)(F)F)nc23)cc(C)n1 [Example 2-44, 5-amino-8-(2,6-dimethyl-4-pyridyl)-7-(4-methylthiazol-2-yl)-2-(3,3,3-trifluoropropyl)-[1,2,4]triazolo[4,3-c]pyrimidin-3-one]
– | > 100000 nM | 6.31 nM | – | CCN(C)CCn1nc2c(-c3cc(C)nc(C)c3)c(-c3ccccc3)nc(N)n2c1=O [Example 2-18, 5-amino-8-(2,6-dimethyl-4-pyridyl)-2-[2-[ethyl(methyl)amino]ethyl]-7-phenyl-[1,2,4]triazolo[4,3-c]pyrimidin-3-one]
251 nM | > 100000 nM | 10 nM | – | COCCn1nc2c(-c3cc(C)nc(C)c3)c(-c3ccccc3)nc(N)n2c1=O [Example 2-10, 5-amino-8-(2,6-dimethyl-4-pyridyl)-2-(2-methoxyethyl)-7-phenyl-[1,2,4]triazolo[4,3-c]pyrimidin-3-one]
> 3160 nM | > 100000 nM | 126 nM | – | CCN(C)c1nc(N)n2c(=O)n(CCC(F)(F)F)nc2c1-c1cc(C)nc(C)c1 [Example 3-4, 5-amino-8-(2,6-dimethyl-4-pyridyl)-7-[ethyl(methyl)amino]-2-(3,3,3-trifluoropropyl)-[1,2,4]triazolo[4,3-c]pyrimidin-3-one]
79.4 nM | – | 1.26 nM | 18800 nM | COc1ccc(-c2nc(N)n3c(=O)n(CCC(F)(F)F)nc3c2-c2cc(C)nc(C)c2)cc1 [Example 2-35, 5-amino-8-(2,6-dimethyl-4-pyridyl)-7-(4-methoxyphenyl)-2-(3,3,3-trifluoropropyl)-[1,2,4]triazolo[4,3-c]pyrimidin-3-one]
> 3160 nM | > 100000 nM | 31.6 nM | – | Cc1cc(-c2c(-c3ccccn3)nc(N)n3c(=O)n(CCC(F)(F)F)nc23)cc(C)n1 [Example 2-37, 5-amino-8-(2,6-dimethyl-4-pyridyl)-7-(2-pyridyl)-2-(3,3,3-trifluoropropyl)-[1,2,4]triazolo[4,3-c]pyrimidin-3-one]
– | > 100000 nM | 1 nM | 61000 nM | COc1cc(-c2c(-c3ccccc3)nc(N)n3c(=O)n(CCC(F)(F)F)nc23)cc(CO)n1 [Example 2-46, 5-amino-8-[2-(hydroxymethyl)-6-methoxy-4-pyridyl]-7-phenyl-2-(3,3,3-trifluoropropyl)-[1,2,4]triazolo[4,3-c]pyrimidin-3-one]
126 nM | > 100000 nM | 0.794 nM | – | Cc1cc(-c2c(-c3ccccc3)nc(N)n3c(=O)n(Cc4ccc(F)c(N)n4)nc23)cc(CO)n1 [Example 1-45, 5-amino-2-[(6-amino-5-fluoro-2-pyridyl)methyl]-8-[2-(hydroxymethyl)-6-methyl-4-pyridyl]-7-phenyl-[1,2,4]triazolo[4,3-c]pyrimidin-3-one]
316 nM | > 100000 nM | 12.6 nM | – | Cc1cc(-c2c(-c3ccccc3)nc(N)n3c(=O)n(CCC(F)(F)F)nc23)cc(C)[n+]1[O-] [Example 2-56, 5-amino-8-(2,6-dimethyl-1-oxido-pyridin-1-ium-4-yl)-7-phenyl-2-(3,3,3-trifluoropropyl)-[1,2,4]triazolo[4,3-c]pyrimidin-3-one]
> 1260 nM | 37400 nM | 1.58 nM | – | Cc1cc(-c2c(-c3ccc(F)cc3)nc(N)n3c(=O)n(CCC(F)(F)F)nc23)cc(CO)n1 [Example 2-64, 5-amino-7-(4-fluorophenyl)-8-[2-(hydroxymethyl)-6-methyl-4-pyridyl]-2-(3,3,3-trifluoropropyl)-[1,2,4]triazolo[4,3-c]pyrimidin-3-one]
> 3160 nM | – | 398 nM | – | CCC(c1ccc(F)cn1)n1nc2c(-c3cc(C)nc(CO)c3)c(-c3ccccc3)nc(N)n2c1=O (single isomer, unassigned) [1-46 iso-1, 5-amino-2-[1-(5-fluoro-2-pyridyl)propyl]-8-[2-(hydroxymethyl)-6-methyl-4-pyridyl]-7-phenyl-[1,2,4]triazolo[4,3-c]pyrimidin-3-one]
631 nM | – | 1.26 nM | – | [2H]c1c([2H])c([2H])c(-c2nc(N)n3c(=O)n(CCC(F)(F)F)nc3c2-c2cc(C)nc(CO)c2)c([2H])c1[2H] [Example 2-61, 5-amino-8-[2-(hydroxymethyl)-6-methyl-4-pyridyl]-7-(2,3,4,5,6-pentadeuteriophenyl)-2-(3,3,3-trifluoropropyl)-[1,2,4]triazolo[4,3-c]pyrimidin-3-one]
